Reference: patent US20060165803A1, “Pharmaceutical compositions of sertaconazole for vaginal use” (priority 2002, published 2006)

Key:
[1] = test system: C. guillermondii; conditions: C. guillermondii (5); cited from earlier work
[2] = test system: C. tropicalis; conditions: C. tropicalis (21); cited from earlier work
[3] = test system: C. albicans; conditions: C. albicans (73); cited from earlier work
[4] = test system: C. krusei; conditions: C. krusei (13); cited from earlier work
[5] = test system: C. glabrata; conditions: C. glabrata (16); cited from earlier work
[6] = test system: C. parapsilosis; conditions: C. parapsilosis (22); cited from earlier work
[7] = test system: reconstituted vaginal epithelial cells; assay: In vitro permeation test through reconstituted vaginal epithelium, Franz cell; type: in vitro ADME; conditions: reconstituted human vaginal epithelium, phosphate buffer pH 7.4, 32° C.
Experimental: The in vitro dissolution and transdermal permeation tests of sertaconazole nitrate from the cream formulations of Example 1 were evaluated in comparison with a conventional cream formulation of 2% sertaconazole nitrate.
Both tests were carried out with Franz cell-type diffusion systems, with a diffusional area of 2.54 cm^2. 1 ml of cream was placed in the donor compartment and 11 ml of a suitable receptor medium were placed in the receptor compartment. For the dissolution test, a 0.45-μm Millipore membrane of nylon esters was used, and the receptor medium was made up of a mixture of ethanol-water (1:1). Vaginal epithelium was used as permeation membrane and phosphate buffer solution at pH 7.4 was used as the receptor medium.
The 4-cm^2 membranes used in the permeation test were formed by reconstituted vaginal epithelial cells (5-day culture) from transformed cells of human vaginal epithelium on polycarbonate support. These cells were obtained from cell lines of vulvar epidermoid carcinomas. The test temperature was 32° C. for both cases.

[8] = test system: C. albicans; conditions: against C. albicans; cited from earlier work

| absorption (permeation) through the vaginal mucosa [7] | Compound | minimum inhibitory concentration (MIC) [1] | minimum inhibitory concentration (MIC) [2] | minimum inhibitory concentration (MIC) [3] | minimum inhibitory concentration (MIC) [4] | minimum inhibitory concentration (MIC) [5] | minimum inhibitory concentration (MIC) [6] | fungicide activity compared with imidazole antifungal drugs [8] |
| --- | --- | --- | --- | --- | --- | --- | --- | --- |
| – | c1ccc(-c2ccc(C(c3ccccc3)n3ccnc3)cc2)cc1 (centres unmarked) [Bifonazole, bifonazole] | 3.87 | 9.51 | 3.6 | 2.20 | 4.09 | 3.76 | – |
| – | Clc1ccc(COC(Cn2ccnc2)c2ccc(Cl)cc2Cl)cc1 (centres unmarked) [Econazole, econazole] | 1.11 | 3.14 | 2.24 | 0.91 | 2.39 | 0.75 | – |
| less than 0.1 % of the dose | Clc1ccc(C(Cn2ccnc2)OCc2csc3c(Cl)cccc23)c(Cl)c1 (centres unmarked) [Sertaconazole, sertaconazole] | 0.51 | 1.67 | 1.02 | 0.38 | 0.78 | 0.31 | superior to most imidazole antifungal drugs |
